“Also recorded” adds a separate entry of the source.
Assays:
[1] = tested on: reconstructed human epidermis (RHE); assay: PGE2 release in reconstituted human epidermis under UV stimulation; assay type: cell-based; conditions: UVB (+UVA) irradiated RHE
Protocol: Ten-day-old reconstructed human epidermis (RHE) were placed in maintenance medium. The RHE were topically treated with or without moisturizing creams containing different concentration of Urolithin A active and incubated for 24 hours. The RHE were then rinsed in PBS and irradiated with UVB (+UVA)—850 mJ/cm^2 (+6 J/cm^2) using a SOL500 Sun Simulator equipped with an H2 filter (Dr. Hönle, AG). After irradiation, the treatments were renewed and the RHE were incubated for 24 hours. In parallel, non-irradiated conditions were performed and kept in the dark during the irradiation time. All experimental conditions were performed in n=3. PGE2 released in the culture supernatants was measured using a specific ELISA kit according to the supplier's instructions (Enzo Life Sciences, ref. ADI-900-001). Statistical analysis performed by One-Way Anova.

[2] = tested on: Normal Adult Human Dermal Fibroblasts (NHDF-Ad); assay: RNA sequencing gene expression in human primary dermal fibroblasts; assay type: cell-based; conditions: for expression of MMP1: vs DMSO/vehicle
Protocol: (§1) Study was conducted on Normal Adult Human Dermal Fibroblasts (NHDF-Ad) from two pooled donors (Catalog #: CC-2511) and Normal Adult Human Epidermal Keratinocytes (NHEK-Ad) from two pooled donors (Catalog #: 00192627, Lonza). The primary skin cells were amplified in flask and seeded in 12-well cell culture plates, filled with 1 mL of culture medium and then incubated at 37° C. with 5% CO2 and saturated hygrometry. The basic culture medium of human dermal fibroblasts was composed of FBM™ medium (Fibroblast Growth Basal Medium) supplemented with insulin 0.1%, hFGF-B 0.1%, GA-1000 0.1% and FBS 2%. The basic culture medium of human keratinocytes was composed of KBM™ Gold medium (Keratinocytes Basal Medium) supplemented with Hydrocortisone, Transferrin, Epinephrine, Gentamycin, Amphotericin B, BPE, hEGF and Insulin. Primary cells were treated at confluency (approximatively 250000 cells per well) with 0.1% DMSO (control), 2.5 μM and 10 μM of Urolithin A for 24 h, and harvested for RNA sequencing and expression profiling using the NGS platform.

[3] = tested on: UVB induced erythema; assay: Clinical trial: UVB induced erythema, Chromameter a*; assay type: in vivo, human
Protocol: A sunburn of 1.25 minimal erythemal dose (MED) was evoked on one set of test areas and 1.6 MED on the other set of test areas by irradiation with a sun simulator. On 3 test areas of each set products was applied 24 hours before irradiation, on 3 other test areas of each set products was applied immediately after irradiation. An irradiated but untreated test area served as a control. The effect of the test products was assessed by visual evaluation of erythema and instrumental color measurements by Chromameter before and after irradiation. The study was reviewed by an independent institutional review board (IRB) for ethical approval.
The following efficacy assessment(s) will be performed: • Erythema (a*) by Chromameter (See FIG. 10) • Visual erythema evaluation (trained grader)
The following instrumental measurement(s) will be performed: • CHROMAMETER CR 400 (Minolta, Device D-Langenhagen, Germany): Skin color can objectively be quantified by reflectance measurements with a tri-stimulus Chromameter. The measuring principle is based on the reflection of a Xenon flash that diffusely lightens the skin on an area of 8 mm in diameter. The vertically reflected light from the skin is then detected by high-sensitive silica photodiodes that provide a color analysis of the detected light. The Chromameter defines the measured color in the L*a*b* color coordinate system. The L*-value defines the brightness. The color is defined by the parameters a* (red-green axis; negative a*-value green, positive a*-value red) and b* (blue-yellow axis, negative b*-value blue, positive b*-value yellow). The a* value correlates well with visual assessments of skin redness (erythema), a* is a measure for erythema. […]

[4] = tested on: Normal Adult Human Epidermal Keratinocytes (NHEK-Ad); assay: RNA sequencing gene expression in human primary keratinocytes; assay type: cell-based; conditions: for expression of autophagy/mitophagy and mitochondrial function genes / expression of MMP1: vs DMSO/vehicle
Protocol: as §1

[5] = tested on: wrinkles in the periorbital regions; assay: Aging study 2: skin roughness (wrinkle) by DermaTOP; assay type: in vivo, human; conditions: 1% UA creams, 2, 4 and 8 weeks, vs untreated side; listed as UA
Text: Anti-wrinkle efficacy will be assessed in the periorbital regions by investigating the three-dimensional structure of the wrinkles (DermaTOP). Skin hydration, skin elasticity effects and skin barrier function will be investigated by Corneometer, Cutometer and Tewameter measurements. On a subgroup of 12 subjects the ceramide content, including barrier lipids, in the Stratum Corneum will be performed by Raman Spectroscopy. […]
DERMATOP blue (Eo Tech SA, Marcoussis France): Using phase-shifted and gray-coded measurements of human skin the three-dimensional surface structure of the investigated skin site is captured. […] The fringes that are projected under a defined triangulation angle onto the surface of the measured target with a sinus-like intensity of brightness are detected with a CCD camera. The three-dimensional skin surface profile is calculated from the position of the fringes in combination with the gray values of each pixel. From the captured three-dimensional structure, roughness parameters are calculated. […]

SMILES: O=c1oc2cc(O)ccc2c2ccc(O)cc12 [Urolithin A]
- PGE2 secretion compared to irradiated skin treated with basic cream formulation without UA ([1]; all UA concentrations tested): significantly reduces PGE2 secretion
- PGE2 secretion compared to irradiated non-treated skin ([1]; cream with UA at 0.5%, 1% and 2%, supernatant ELISA): significantly reduces PGE2 secretion
- collagen gene expression (COL1A1) ([2]; 2.5 μM or 10 μM, 24 hours): did not alter
- expression of MMP1 ([2]; 2.5 μM or 10 μM, 24 hours): decreases
- expression of MMP1 ([2]; 2.5 μM or 10 μM, 24 hours, listed as UA): suppressed the expression
- expression of mitophagy genes PARKIN and PINK1 and autophagy genes MAP1LC3 and ULK1 ([2]; 2.5 μM or 10 μM, 24 hours, vs vehicle): dose-dependent increase
- expression of mitophagy marker PINK1 ([2]; 2.5 uM or 10 uM, vs DMSO): increased
- skin redness, erythema (a*) by Chromameter vs untreated area ([3]; skin cream with 1% Urolithin A, 1.6 MED UVB, 24 hours after irradiation): reduction; also recorded: significantly less skin redness
- reduction of skin redness/erythema ([3]; skin cream with 1% Urolithin A, 1.6 MED UVB, vs untreated area): approximately 14.3%
- skin redness/erythema ([3]; skin cream with Urolithin A at 0.5%): did not show any significant effect
- expression of genes encoding collagen degradation enzymes (MMPs, ADAMs) ([4]; 2.5 uM or 10 uM, 24 h, vs DMSO): reduces expression
- expression of genes encoding proinflammatory cytokines (IL1A, IL1B) ([4]; 2.5 uM or 10 uM, 24 h, vs DMSO): reduces expression
- expression of autophagy/mitophagy and mitochondrial function genes ([4]; 2.5 uM or 10 uM, 24 h): increases the expression
- expression of autophagy/mitophagy and mitochondrial function genes ([4]; 2.5 uM or 10 uM, 24 h, listed as UA): upregulated
- expression of mitophagy marker PINK1 ([4]; 2.5 uM or 10 uM, vs DMSO): increased
- expression of MMP1 ([4]; 24 h): decreases
- expression of MMP1 ([4]; 24 h, listed as UA): drastic downregulation
- expression of MMP3 ([4]; 24 h, vs vehicle): drastic downregulation
- wrinkles (finer and rougher skin structures, Ra and Rz) [5]: significant anti-wrinkle effects; also recorded: significant impact on reducing wrinkles

Source: US20230301890A1, “COMPOSITIONS COMPRISING UROLITHINS” (Amazentis SA, priority 2022, published 2023)
